pEC50: −log10 of the molar value. “Also recorded” adds a separate entry of the source. Square brackets hold non-standard residues; d marks the D form. Peptide text beside a SMILES is read from it. * marks the point of attachment. TOAC = CC1(C)CC(N)(C(=O)O)CC(C)(C)N1[O]; Leu(ol) = CC(C)C[C@H](N)CO; Octanoyl = CCCCCCCC(=O)*; Api = NC1(C(=O)O)CCNCC1; Aib = CC(C)(N)C(=O)O
Columns and labels:
S. aureus = settings: relative to TG; cited from earlier work
HeLa cells [1] = assay type: cell-based, human; settings: MTT, 24 h exposure; average error about ±2 μM
Method: (§1) We studied the effect of TG and its analogues on normal (HDF) and transformed (T67 and HeLa) cells. The cellular viability was assessed after 24 hours of exposure to the peptides by the MTT assay (Table 1).
(§2) Culture media, foetal bovine serum (FBS) and antibiotics were purchased from Carlo Erba Dasit Group. The T67 human glioma cell line was derived by Lauro et al.[49] from a World Health Organization (WHO) Grade III gemistocytic astrocytoma. Human dermal fibroblasts (HDF) were obtained by ATCC. HDF were cultured in Fibroblast Basal Medium (ATCC) supplemented with 10% FBS. T67 and HeLa cells were cultured in Dulbecco’s modified Eagle’s medium (MMedical) supplemented with 10% FBS, 100 UI/ml penicillin, 100 μg/ml streptomycin, and 40 μg/ml gentamycin, and kept in a 5% CO2 atmosphere at 37 °C, with saturating humidity. Cell viability and number were measured by trypan blue exclusion method.
(§3) Cytotoxicity of peptides was estimated using a MTT assay. All the chemicals used for this assay have been purchased by sigma Aldrich and used without further purification. T67, HeLa and HDF cells were seeded in 24-well plates at 1 × 10^5 cells/well. Experiments were performed after 24 h of incubation at 37 °C in 5% CO2. After this time cells were washed and treated for 24 h with different concentrations of peptides; the cells are then incubated for 60 mins with 300 μM of MTT in culture medium. The absorbance of each well was measured at 450 nm with a spectrofluorometer (Wallac Victor multilabel counter; Perkin-Elmer Inc., Boston, MA, USA). Data are reported as the mean ± standard deviation of at least three independent experiments.

[2] = tested on: human dermal fibroblasts (HDF); assay type: cell-based; settings: MTT, 24 h exposure; average error about ±2 μM
Method: as §1, §2, §3

[3] = tested on: T67 human glioma cell line; assay type: cell-based; settings: MTT, 24 h exposure; average error about ±2 μM
Method: as §1, §2, §3

T67, HeLa and HDF cells = assay: MTT cytotoxicity assay, summary over the three cell lines; assay type: cell-based, human; settings: 24 h
Method: as §1, §3

HeLa cells [4] = assay: EPR of TOAC-labelled peptides with intact HeLa cells; assay type: binding, human; settings: 125 μM, 25 nmol per million cells, 15–20 min incubation
Description: (§4) EPR spectroscopy has been performed on TOAC-labelled analogues to determine the amount of peptide bound to the membrane and to evaluate the peptide dynamics. […] We studied all analogues in buffer solution and in POPC SUV, the same systems used for CD spectroscopy; four selected analogues (see cytotoxicity assay paragraph) were also studied interacting with a suspension of intact cells of the three cell lines. […] Additionally, from the simulations, we determined the value of the Azz hyperfine component that gives an indication of the polarity of the environment. All EPR spectra and simulations are reported in the Supplementary Information (Figs S1–S4), while in Fig. 4, we report an overview of the experiments. In the top part of the figure, we show the spectra of [TOAC^1] TG in buffer solution (blue), in SUV (red), and interacting with T67 cells (magenta). In the bottom part, we show the spectra of the other three peptides, representative of the different degrees of biological activity, interacting with intact T67 cells. […]
(§5) Methanol, 99.9%, spectrophotometric grade, [4-(2-hydroxyethyl)-1-piperazinyl]ethanesulfonic acid (HEPES), and PBS buffer (NaCl 137 mM, KCl 2.7 mM, Na2HPO4 10 mM, KH2PO4 1.8 mM, pH 7.4) were purchased from Sigma-Aldrich. […] The spectra were recorded after 15–20 minutes of incubation of the peptide to the cell suspension. […]

HDF cells = assay: EPR of TOAC-labelled peptides with intact HDF cells; assay type: binding, human; settings: 125 μM, 25 nmol per million cells, 15–20 min incubation
Description: as §4, §5

[5] = EPR of TOAC-labelled peptides in POPC SUV; assay type: binding; settings: P:L 1:100, 78 μM peptide
Description: as §4, with “[TOAC^1]” for “[TOAC^1] TG in buffer solution (blue), in SUV (red), and interacting with T67 cells (magenta). In the bottom part, we show the spectra of the other three peptides, representative of the different degrees of biological activity, interacting with intact T67 cells.”
The EPR spectra of all TOAC-labelled peptides recorded in POPC SUV are very similar to each other, and are shown in the Supplementary Information, Fig. S1. […]
(§6) Methanol, 99.9%, spectrophotometric grade, [4-(2-hydroxyethyl)-1-piperazinyl]ethanesulfonic acid (HEPES), and PBS buffer (NaCl 137 mM, KCl 2.7 mM, Na2HPO4 10 mM, KH2PO4 1.8 mM, pH 7.4) were purchased from Sigma-Aldrich. […] The spectra were recorded after 15–20 minutes of incubation of the peptide to the cell suspension. […] The microwave frequency was measured by a frequency counter, HP5342A. […]

T67 cells = assay: EPR of TOAC-labelled peptides with intact T67 cells; assay type: binding, human; settings: 125 μM, 25 nmol per million cells, 15–20 min incubation
Description: as §4, §5

[6] = tested on: suspensions of intact cells (T67, HeLa, HDF); assay: EPR binding to suspensions of intact cells, summary; parameters: species or system human; settings: over the three cell lines
Description: The EPR spectra of all peptides interacting with suspensions of intact cells (Fig. S3) show two spectral components: the three sharp lines characteristic of peptides in aqueous solution and the broad lineshape of peptides bound to the membrane. Therefore all peptides are not fully bound to the cell membranes. The presence of two well-defined spectral components implies that the exchange of the peptides between the two phases (membrane and aqueous solution) is slow on the EPR timescale, with a frequency less than ≈1 MHz. The amount of peptide bound to the membrane is obtained from the relative contribution of each spectral component to the total area of the simulated spectrum. A detailed example of the procedure is reported in the Supplementary Information, Fig. S4. The spectra show small variations in binding for the same peptide in different cell lines, and large variations for different peptides in the same cell line. Among the analogues, [TOAC^1, Lys^6] TG and [TOAC^1, Leu^4] […]
as §6

For `CCCCCCCC(=O)NC(C)(C)C(=O)NCC(=O)N[C@@H](CC(C)C)C(=O)NC(C)(C)C(=O)N[C@@H](CCCCN)C(=O)N[C@@H](CCCCN)C(=O)N[C@@H](CC(C)C)C(=O)NC(C)(C)C(=O)NCC(=O)N[C@H](C(=O)N[C@H](CO)CC(C)C)[C@@H](C)CC` [[Lys^5,6] TG, Oct-UGLUKKLUGI-Lol], the antibacterial activity (S. aureus) is given as “remarkably increased activity”, the pEC50 (HeLa cells [1]) is given as 5.00 and the pEC50 [2] is given as 4.82. The pEC50 [3] was 5.15.

For `CCCCCCCC(=O)NC1(C(=O)NCC(=O)N[C@@H](CC(C)C)C(=O)NC2(C(=O)NCC(=O)NCC(=O)N[C@@H](CC(C)C)C(=O)NC(C)(C)C(=O)NCC(=O)N[C@H](C(=O)N[C@H](CO)CC(C)C)[C@@H](C)CC)CCNCC2)CC(C)(C)N([O])C(C)(C)C1` [[TOAC^1, Api^4] TG, Oct-XGLZGGLUGI-Lol] (Octanoyl-[TOAC]GL[Api]GGL[Aib]GI[Leu(ol)]), the “cytotoxicity / selectivity in words” value (T67, HeLa and HDF cells) was “selective toxicity; also recorded: selective cytotoxicity towards a cancer cell line”, the “% membrane-bound peptide HeLa” value (HeLa cells [4]) was 21% and the pEC50 (HeLa cells [1]) was under 4.70. The “% membrane-bound peptide HDF” value (HDF cells) was 28%, the pEC50 [2] was under 4.70 and the “% membrane-bound peptide POPC SUV” value [5] was over 99%.

For `CCCCCCCC(=O)NC1(C(=O)NCC(=O)N[C@@H](CC(C)C)C(=O)NC(C)(C)C(=O)NCC(=O)NCC(=O)N[C@@H](CC(C)C)C(=O)NC(C)(C)C(=O)NCC(=O)N[C@H](C(=O)N[C@H](CO)CC(C)C)[C@@H](C)CC)CC(C)(C)N([O])C(C)(C)C1` [[TOAC^1] TG, Oct-XGLUGGLUGI-Lol] (Octanoyl-[TOAC]GL[Aib]GGL[Aib]GI[Leu(ol)]), the “% membrane-bound peptide T67” value (T67 cells) was 85%, the “% membrane-bound peptide HeLa” value (HeLa cells [4]) was 78% and the pEC50 (HeLa cells [1]) was 5.52. For the same compound, the “percentage of peptide bound to cells” value [6] was ~ 80%, the “% membrane-bound peptide HDF” value (HDF cells) was 84% and the pEC50 [2] was 5.30. The pEC50 [3] was 6.00 and the “% membrane-bound peptide POPC SUV” value [5] was 100%.
